Read-outs that look alike come from different tables or passages of the source.
Experiments:
[1] = molecular target: T1, human ETA receptors (Homo sapiens, UniProt P25101); assay: Binding Test #1: inhibition of 125I-endothelin-1 binding to ETA receptors (TE 671 cell membranes); conditions: incubation at 24° C.; generally the average of 2 to 3 experiments
T1 construct: host or cells: TE 671 cells (membranes)
T1 sequence (P25101 21-427): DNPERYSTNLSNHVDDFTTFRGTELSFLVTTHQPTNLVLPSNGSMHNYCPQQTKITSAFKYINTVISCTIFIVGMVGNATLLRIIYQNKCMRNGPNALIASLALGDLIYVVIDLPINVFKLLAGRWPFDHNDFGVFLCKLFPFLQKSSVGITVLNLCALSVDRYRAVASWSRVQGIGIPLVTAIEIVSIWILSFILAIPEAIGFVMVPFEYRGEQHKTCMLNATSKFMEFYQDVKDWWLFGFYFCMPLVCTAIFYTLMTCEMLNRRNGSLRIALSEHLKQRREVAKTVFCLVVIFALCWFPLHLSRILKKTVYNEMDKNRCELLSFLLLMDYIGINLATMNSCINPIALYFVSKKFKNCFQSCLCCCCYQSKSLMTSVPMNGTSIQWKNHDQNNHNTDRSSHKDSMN
From the text: (§1) Compounds that are potential endothelin antagonists are identified by testing their ability to compete with ^125I-labeled ET-1 for binding to human ETA receptors or ETB receptors present on isolated cell membranes. The effectiveness of the test compound as an antagonist or agonist of the biological tissue response of endothelin can also be assessed by measuring the effect on endothelin induced contraction of isolated rat thoracic aortic rings. The ability of the compounds to act as antagonists or agonists for ETB receptors can be assess by testing the ability of the compounds are to inhibit endothelin-1 induced prostacyclin release from cultured bovine aortic endothelial cells.
TE 671 cells (ATCC Accession No. HTB 139) express ETA receptors. These cells were grown to confluence in T-175 flasks. Cells from multiple flasks were collected by scraping, pooled and centrifuged for 10 min at 190×g. The cells were resuspended in phosphate buffered saline (PBS) containing 10 mM EDTA using a Tenbroeck homogenizer. The suspension was centrifuged at 4° C. at 57,800×g for 15 min, the pellet was resuspended in 5 ml of buffer A (5 mM HEPES buffer, pH 7.4 containing aprotinin (100 KIU/ml)) and then frozen and thawed once. 5 ml of Buffer B (5 mM HEPES Buffer, pH 7.4 containing 10 mM MnCl2 and 0.001 % deoxyribonuclease Type 1) was added, the suspension mixed by inversion and then incubated at 37° C. for 30 minutes. The mixture was centrifuged at 57,800×g as described above, the pellet washed twice with buffer A and then resuspended in buffer C (30 mM HEPES buffer, pH 7.4 containing aprotinin (100 KIU/ml) to give a final protein concentration of 2 mg/ml and stored at −70° C. until use.
The membrane suspension was diluted with binding buffer (30 mM HEPES buffer, pH 7.4 containing 150 mM NaCl, 5 mM MgCl2, 0.5% Bacitracin) to a concentration of 8 μg/50, μl. ^125I-endothelin-1 (3,000 cpm, […]) was added to 50 μl of either: (A) endothelin-1 (for non specific binding) to give a final concentration 80 nM); (B) binding buffer (for total binding); or (C) a test compound (final concentration 1 nM to 100 μM). The membrane suspension (50 μl), containing up to 8 μg of membrane protein, was added to each of (A), (B), or (C). Mixtures were shaken, and incubated at 4° C. for 16-18 hours, and then centrifuged at 4° C. for 25 min at 2,500×g. Alternatively, the incubation was conducted at 24° C. When incubated at 24° C., the IC50 concentrations are 2- to 10-fold higher than when the incubation is conducted at 4° C. This, must be kept in mind when comparing IC50 concentrations among compounds provided herein.
The supernatant, containing unbound radioactivity, was decanted and the pellet counted on a Genesys multiwell gamma counter. The degree of inhibition of binding (D) was calculated according to the following equation: [formula]
Each test was generally performed in triplicate.

[2] = molecular target: T2, human ETB receptor (Homo sapiens, UniProt P24530); assay: Binding Test #2: inhibition of 125I-endothelin-1 binding to ETB receptors (transfected COS7 cell membranes); conditions: incubation at 24° C.; generally the average of 2 to 3 experiments
T2 construct: expressed in transfected cells; host or cells: COS7 cells
T2 sequence (P24530 27-442): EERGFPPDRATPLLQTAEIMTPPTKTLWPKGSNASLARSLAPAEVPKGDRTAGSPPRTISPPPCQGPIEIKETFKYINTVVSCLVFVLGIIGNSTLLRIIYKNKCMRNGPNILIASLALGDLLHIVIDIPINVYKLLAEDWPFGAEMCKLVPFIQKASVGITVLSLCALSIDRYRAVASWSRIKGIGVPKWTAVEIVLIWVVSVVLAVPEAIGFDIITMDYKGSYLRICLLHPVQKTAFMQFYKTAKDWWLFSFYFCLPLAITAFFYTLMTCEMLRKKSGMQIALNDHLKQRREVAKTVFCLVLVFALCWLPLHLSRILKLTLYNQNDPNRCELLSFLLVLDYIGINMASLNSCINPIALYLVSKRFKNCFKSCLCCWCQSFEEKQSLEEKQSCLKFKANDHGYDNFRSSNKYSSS
From the text: as §1
COS7 cells were transfected with DNA encoding the ETB receptor, The resulting cells, which express the human ETB receptor, were grown to confluence in T-150 flasks. Membrane was prepared as described above. The binding assay was performed as described above using the membrane preparation diluted with binding buffer to a concentration of 1 μg/50 μl.
Briefly, the COS7 cells, described above, that had been transfected with DNA encoding the ETB receptor and express the human ETB receptor on their surfaces were grown to confluence in T-175 flasks. Cells from multiple flasks were collected by scraping, pooled and centrifuged for 10 min at 190×g. The cells were resuspended in phosphate buffered saline (PBS) containing 10 mM EDTA using a Tenbroeck homogenizer. The suspension was centrifuged at 4° C. 57,800×g for 15 min, the pellet was resuspended in 5 ml of buffer A (5mM HEPES buffer, pH 7.4 containing aprotinin (100 KIU/ml)) and then frozen and thawed once. Five ml of Buffer B (5 mM HEPES Buffer, pH 7.4 containing 10 mM MnCl2 and 0.001% deoxyribonuclease Type 1) was added, the suspension mixed by inversion and then incubated at 37° C. for 30 minutes. The mixture was centrifuged at 57,800×g as described above, the pellet washed twice with buffer A and then resuspended in buffer C (30 mM HEPES buffer, pH 7.4 containing aprotinin (100 KIU/ml) to give a final protein concentration of 2 mg/ml.
The binding assay was performed as described above using the membrane preparation diluted to give 1 μg/50, μl of binding buffer.

[3] = molecular target: ETA receptor; conditions: cited from earlier work; for IC50: read-out: IC50, inhibition of 125I-labelled endothelin-1 binding
[4] = test system: ETB receptors; conditions: concentrations up to 100 μM; cited from earlier work
[5] = test system: isolated vascular strips; conditions: read-out: EC50, contractile agent; cited from earlier work

IC50 [1] | IC50 [2] | Molecule | other results
650 nM | 10100 nM | COc1cccc(OC)c1Cc1sc2ncccc2c1S(=O)(=O)Nc1onc(C)c1Cl [N-(4-chloro-3-methyl-5-isoxazolyl)-2-(2,6-dimethoxybenzyl)thieno[2,3-b]pyridine-3-sulfonamide] | –
– | – | cyclo(D-Glu-L-Ala-allo-D-llc-L-Leu-D-Trp) [BE-18257B] | IC50 ([3]; aortic smooth muscle): 1400 nM; IC50 ([3]; cultured aortic smooth muscle cells): 500 nM; IC50 ([3]; ventricle membranes): 800 nM; inhibition of binding to receptors in tissues in which ETB receptors predominate [4]: fails to inhibit binding
1.5 nM | 1600 nM | Cc1cc2c(cc1Cc1sc3ncccc3c1S(=O)(=O)Nc1onc(C)c1Cl)OCO2 [N-(4-chloro-3-methyl-5-isoxazolyl)-2-[2-methyl-4,5-(methylene-dioxy)benzyl]thieno [2,3-b]pyridine-3-sulfonamide] | –
45 nM | 6600 nM | Cc1noc(NS(=O)(=O)c2c(C(=O)CCc3ccc4c(c3)OCO4)sc3ncccc23)c1Cl [N-(4-chloro-3-methyl-5-isoxazolyl)-2-[3-(3,4-methylenedioxyphenyl)-proponyl]thieno [2,3-b]pyridine-3-sulfonamide] | –
68 nM | 39000 nM | CCc1sc2ncccc2c1S(=O)(=O)Nc1onc(C)c1Cl [N-(4-chloro-3-methyl-5-isoxazolyl)-2-ethylthieno[2,3-b]pyridine-3-sulfonamide] | –
– | – | endothelin-1: potent twenty-one amino acid peptide vasoconstrictor | potency of inhibition of 125I-labelled endothelin-1 binding relative to endothelin-3 ([3]; cardiovascular tissues): forty to seven hundred times more potently than endothelin-3; EC50 [5]: 0.4 nM
45 nM | 30000 nM | CCc1sc2ncccc2c1S(=O)(=O)Nc1noc(C)c1Cl [N-(4-chloro-5-methyl-3-isoxazolyl)-2-ethylthieno [2,3-b]pyridine-3-sulfonamide] | –
1800 nM | > 100000 nM | Cc1noc(NS(=O)(=O)c2csc3ncccc23)c1Cl [N-(4-chloro-3-methyl-5-isoxazolyl)thieno[2,3-b]pyridine-3-sulfonamide] | –
34 nM | 560 nM | Cc1noc(NS(=O)(=O)c2c(Cc3cccc4ccccc34)sc3ncccc23)c1Cl [N-(4-chloro-3-methyl-5-isoxazolyl)-2-(1-naphthylmethyl)thieno[2,3-b]pyridine-3-sulfonamide] | –
4.5 nM | 1500 nM | Cc1ccc(Cc2sc3ncccc3c2S(=O)(=O)Nc2onc(C)c2Cl)c(C)c1 [N-(4-chloro-3-methyl-5-isoxazolyl)-2-(2,4-dimethylbenzyl)thieno[2,3-b]pyridine-3-sulfonamide] | –

Molecule | IC50 [1] | IC50 [2] | other results
Cc1noc(NS(=O)(=O)c2c(Cc3cc4c(cc3CCO)OCO4)sc3ncccc23)c1Cl [N-(4-chloro-3-methyl-5-isoxazolyl)-2-[2-(2-hydroxyethyl)-4,5-(methylenedioxy)benzyl]thieno[2,3-b]pyridine-3-sulfonamide] | 1.5 nM | 3600 nM | –
Cc1cc2c(cc1Cc1sc3ncccc3c1S(=O)(=O)Nc1noc(C)c1Cl)OCO2 [N-(4-chloro-5-methyl-3-isoxazolyl)-2-[2-methyl-4,5-(methylenedioxy)-benzyl]thieno[2,3-b]pyridine-3-sulfonamide] | 1 nM | 500 nM | –
Cc1noc(NS(=O)(=O)c2c(Cc3ccc4c(c3)OCO4)sc3ncccc23)c1Cl [N-(4-chloro-3-methyl-5-isoxazolyl)-2-[3,4-(methylenedioxy)benzyl]thieno [2,3-b]pyridine-3-sulfonamide] | 5.6 nM | 2800 nM | –
Cc1noc(NS(=O)(=O)c2c(C(=O)c3ccc4c(c3)OCO4)sc3ncccc23)c1Cl [N-(4-chloro-3-methyl-5-isoxazolyl)-2-[3,4-(methylenedioxy)benzoyl]-thieno [2,3-b]pyridine-3-sulfonamide] | 960 nM | 31000 nM | –
